Series [1] addresses T1, GPR35 (Homo sapiens, UniProt Q9HC97).
T1 construct: myc; expressed in transfected cells; host or cells: HEK293, transient co-transfection (Lipofectamine LTX)
Description: Ca2+ mobilization assay (Fluo-4) in HEK-GPR35-Gqo5 cells. Format: cell-based. A general note: A change in cytosolic calcium serves as a functional read-out for many receptors and channels.

Series [2] deals with GPR35. Description: DMR desensitization / antagonism mode against GPR35 agonist-induced DMR in HT29 cells. Format: cell-based, human. The following applies: HT29 cells pretreated with compound, then GPR35 agonist.
Series [3] deals with hERG channel (Homo sapiens, UniProt Q12809).
hERG channel (Homo sapiens, UniProt Q12809), sequence (Q12809 whole entry): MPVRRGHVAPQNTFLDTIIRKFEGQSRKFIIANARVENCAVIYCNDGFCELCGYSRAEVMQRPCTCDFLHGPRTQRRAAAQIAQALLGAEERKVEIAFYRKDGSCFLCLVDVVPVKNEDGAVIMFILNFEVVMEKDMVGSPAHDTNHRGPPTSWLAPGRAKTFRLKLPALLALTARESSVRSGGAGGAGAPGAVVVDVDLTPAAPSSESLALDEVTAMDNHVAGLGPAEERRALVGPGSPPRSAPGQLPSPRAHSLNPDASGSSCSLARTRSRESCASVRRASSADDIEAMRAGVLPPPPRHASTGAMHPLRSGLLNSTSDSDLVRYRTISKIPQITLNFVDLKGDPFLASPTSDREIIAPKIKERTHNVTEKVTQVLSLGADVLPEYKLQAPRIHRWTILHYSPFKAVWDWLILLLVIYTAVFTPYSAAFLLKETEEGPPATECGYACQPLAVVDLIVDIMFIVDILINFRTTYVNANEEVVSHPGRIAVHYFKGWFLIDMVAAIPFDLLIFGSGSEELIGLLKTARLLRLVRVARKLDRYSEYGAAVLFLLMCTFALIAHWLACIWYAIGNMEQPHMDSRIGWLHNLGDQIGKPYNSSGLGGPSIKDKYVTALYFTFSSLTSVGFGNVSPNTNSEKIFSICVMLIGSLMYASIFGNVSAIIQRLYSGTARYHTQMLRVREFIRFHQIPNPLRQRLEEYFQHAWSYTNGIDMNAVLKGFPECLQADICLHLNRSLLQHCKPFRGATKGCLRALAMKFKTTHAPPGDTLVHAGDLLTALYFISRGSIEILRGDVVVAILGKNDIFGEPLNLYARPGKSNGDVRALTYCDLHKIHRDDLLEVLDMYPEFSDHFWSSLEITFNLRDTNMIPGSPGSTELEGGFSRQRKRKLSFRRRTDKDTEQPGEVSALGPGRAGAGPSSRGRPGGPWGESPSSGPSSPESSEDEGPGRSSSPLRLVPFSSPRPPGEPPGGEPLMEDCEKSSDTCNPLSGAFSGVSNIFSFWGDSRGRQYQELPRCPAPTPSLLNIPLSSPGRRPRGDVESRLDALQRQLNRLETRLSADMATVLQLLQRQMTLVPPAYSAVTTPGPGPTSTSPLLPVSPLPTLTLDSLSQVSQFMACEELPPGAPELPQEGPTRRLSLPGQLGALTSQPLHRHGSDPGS
Series [4] concerns hERG channel.

Molecules are shown by their SMILES.

T1 sequence (Q9HC97 whole entry): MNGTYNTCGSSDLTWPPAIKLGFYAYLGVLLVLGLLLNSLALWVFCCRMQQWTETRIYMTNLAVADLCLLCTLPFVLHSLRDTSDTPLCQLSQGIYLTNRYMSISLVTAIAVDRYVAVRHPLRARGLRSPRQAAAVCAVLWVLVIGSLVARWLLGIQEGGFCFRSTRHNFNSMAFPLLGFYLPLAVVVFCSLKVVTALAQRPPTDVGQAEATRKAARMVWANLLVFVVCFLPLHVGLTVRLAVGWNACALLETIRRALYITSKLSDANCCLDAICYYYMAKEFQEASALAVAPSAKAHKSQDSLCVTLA

For the compound `O=[N+]([O-])c1cc2nc(O)c(O)nc2cc1[N+](=O)[O-]` [DNQX], the “Ca2+ moblization (HEK-GPR35-Gqo5)” value on GPR35 [1] (HEK293 cells co-expressing GPR35 and Gqo5, Fluo-4, compounds 10 μM) is on record as “active”. For the same compound, the “Ca2+ mobilization signal in cells co-expressing GPR35 and Gqo5” value on GPR35 [1] (engineered HEK293, 10 μM) was “active”. The “Desenstization to GPR35 agonist” value with GPR35 [2] is “desenstized”. Besides, the “Electrophysiology (HEK-hERG)” value at hERG channel [3] was “inactive”. Also, the “Desenstization to hERG activator” value in the series on hERG channel [4] is listed as “partially desenstized”.

The record behind these values is patent US20120022116A1, “COMPOSITIONS AND METHODS FOR THE TREATMENT OF PATHOLOGICAL CONDITION(S) RELATED TO GPR35 AND/OR GPR35-HERG COMPLEX” (priority 2010, published 2012).
